Reference: publication PMC9571063 (Molecules, 2022)
Like-named read-outs stand apart in the source and are kept apart here.

How the values were obtained:
FER = molecular target: T1, FER (Homo sapiens, UniProt P16591); test: KINOMEscan; format: binding; conditions: read-out: Percent Control
T1 construct: purchased Eurofins DiscoverX KINOMEscan (scanMAX 468)

WNK4 = molecular target: T2, WNK4 (Homo sapiens, UniProt Q96J92); test: KINOMEscan; format: binding; conditions: read-out: Percent Control
T2 construct: purchased Eurofins (KINOMEscan, DiscoverX)

RIOK1 = molecular target: T3, RIOK1 (Homo sapiens, UniProt Q9BRS2); test: KINOMEscan; format: binding; conditions: read-out: Percent Control
T3 construct: purchased Eurofins DiscoverX KINOMEscan (scanMAX 468)

MEK4 = molecular target: T4, MEK4 (Homo sapiens, UniProt P45985); test: KINOMEscan; format: binding; conditions: read-out: Percent Control
T4 construct: purchased Eurofins DiscoverX KINOMEscan (scanMAX 468)

RIOK2 = molecular target: T5, RIOK2 (Homo sapiens, UniProt Q9BVS4); test: KINOMEscan; format: binding; conditions: read-out: Percent Control
T5 construct: purchased Eurofins DiscoverX KINOMEscan (scanMAX 468)

CTK = molecular target: T6, CTK (Homo sapiens, UniProt P42679); test: KINOMEscan; format: binding; conditions: read-out: Percent Control
T6 construct: purchased Eurofins DiscoverX KINOMEscan (scanMAX 468)

PFTK1 = molecular target: T7, PFTK1 (Homo sapiens, UniProt O94921); test: KINOMEscan; format: binding; conditions: read-out: Percent Control
T7 construct: purchased Eurofins DiscoverX KINOMEscan (scanMAX 468)

PRKD1 = molecular target: T8, PRKD1 (Homo sapiens, UniProt Q15139); test: KINOMEscan; format: binding; conditions: read-out: Percent Control
T8 construct: purchased Eurofins DiscoverX KINOMEscan (scanMAX 468)

MTOR = molecular target: T9, MTOR (Homo sapiens, UniProt P42345); test: KINOMEscan; format: binding; conditions: read-out: Percent Control
T9 construct: purchased Eurofins DiscoverX KINOMEscan (scanMAX 468)

YANK2 = molecular target: T10, YANK2 (Homo sapiens, UniProt Q9NY57); test: KINOMEscan; format: binding; conditions: read-out: Percent Control
T10 construct: purchased Eurofins (KINOMEscan, DiscoverX)

HPK1 = molecular target: T11, HPK1 (Homo sapiens, UniProt Q92918); test: KINOMEscan; format: binding; conditions: read-out: Percent Control
T11 construct: purchased Eurofins DiscoverX KINOMEscan (scanMAX 468)

Hs_CDK9/CyclinT = molecular target: T12, Hs_CDK9/CyclinT (Homo sapiens, UniProt P50750); set-up: method as in ref 13 (a number printed in a supplementary file, which may have a reference list of its own: not looked up in the article's list); conditions: DB18, cited from earlier work
T12 construct: host or cells: Sf9 insect cells (baculovirus)

MST3 = molecular target: T13, MST3 (Homo sapiens, UniProt Q9Y6E0); test: KINOMEscan; format: binding; conditions: read-out: Percent Control
T13 construct: purchased Eurofins DiscoverX KINOMEscan (scanMAX 468)

CDK11 = molecular target: T14, CDK11 (Homo sapiens, UniProt Q9BWU1); test: KINOMEscan; format: binding; conditions: read-out: Percent Control
T14 construct: purchased Eurofins DiscoverX KINOMEscan (scanMAX 468)

IKK-beta = molecular target: T15, IKK-beta (Homo sapiens, UniProt O14920); test: KINOMEscan; format: binding; conditions: read-out: Percent Control
T15 construct: purchased Eurofins DiscoverX KINOMEscan (scanMAX 468)

MET(Y1235D) = molecular target: T16, MET(Y1235D) (Homo sapiens, UniProt P08581, Y1235D); test: KINOMEscan; format: binding; conditions: read-out: Percent Control
T16 construct: purchased Eurofins DiscoverX KINOMEscan (scanMAX 468)

EGFR(E746-A750del) = molecular target: T17, EGFR(E746-A750del) (Homo sapiens, UniProt P00533, DEL746-750); test: KINOMEscan; format: binding; conditions: read-out: Percent Control
T17 construct: purchased Eurofins DiscoverX KINOMEscan (scanMAX 468)

BMPR1B = molecular target: T18, BMPR1B (Homo sapiens, UniProt O00238); test: KINOMEscan; format: binding; conditions: read-out: Percent Control
T18 construct: purchased Eurofins DiscoverX KINOMEscan (scanMAX 468)

CSK = molecular target: T19, CSK (Homo sapiens, UniProt P41240); test: KINOMEscan; format: binding; conditions: read-out: Percent Control
T19 construct: purchased Eurofins DiscoverX KINOMEscan (scanMAX 468)

PLK1 = molecular target: T20, PLK1 (Homo sapiens, UniProt P53350); test: KINOMEscan; format: binding; conditions: read-out: Percent Control
T20 construct: purchased Eurofins DiscoverX KINOMEscan (scanMAX 468)

MYO3B = molecular target: T21, MYO3B (Homo sapiens, UniProt Q8WXR4); test: KINOMEscan; format: binding; conditions: read-out: Percent Control
T21 construct: purchased Eurofins DiscoverX KINOMEscan (scanMAX 468)

FYN = molecular target: T22, FYN (Homo sapiens, UniProt P06241); test: KINOMEscan; format: binding; conditions: read-out: Percent Control
T22 construct: purchased Eurofins DiscoverX KINOMEscan (scanMAX 468)

EPHA5 = molecular target: T23, EPHA5 (Homo sapiens, UniProt P54756); test: KINOMEscan; format: binding; conditions: read-out: Percent Control
T23 construct: purchased Eurofins DiscoverX KINOMEscan (scanMAX 468)

PIK3C2B = molecular target: T24, PIK3C2B (Homo sapiens, UniProt O00750); test: KINOMEscan; format: binding; conditions: read-out: Percent Control
T24 construct: purchased Eurofins DiscoverX KINOMEscan (scanMAX 468)

ADCK4 = molecular target: T25, ADCK4 (Homo sapiens, UniProt Q96D53); test: KINOMEscan; format: binding; conditions: read-out: Percent Control
T25 construct: purchased Eurofins DiscoverX KINOMEscan (scanMAX 468)

EIF2AK1 = molecular target: T26, EIF2AK1 (Homo sapiens, UniProt Q9BQI3); test: KINOMEscan; format: binding; conditions: read-out: Percent Control
T26 construct: purchased Eurofins DiscoverX KINOMEscan (scanMAX 468)

DMPK2 = molecular target: T27, DMPK2 (Homo sapiens, UniProt Q6DT37); test: KINOMEscan; format: binding; conditions: read-out: Percent Control
T27 construct: purchased Eurofins DiscoverX KINOMEscan (scanMAX 468)

DRAK2 = molecular target: T28, DRAK2 (Homo sapiens, UniProt O94768); test: KINOMEscan; format: binding; conditions: read-out: Percent Control
T28 construct: purchased Eurofins DiscoverX KINOMEscan (scanMAX 468)

CDK4-cyclinD1 = molecular target: T29, CDK4-cyclinD1 (Homo sapiens, UniProt P11802); test: KINOMEscan; format: binding; conditions: read-out: Percent Control
T29 construct: purchased Eurofins DiscoverX KINOMEscan (scanMAX 468)

MET = molecular target: T30, MET (Homo sapiens, UniProt P08581); test: KINOMEscan; format: binding; conditions: read-out: Percent Control
T30 construct: purchased Eurofins DiscoverX KINOMEscan (scanMAX 468)

PRKR = molecular target: T31, PRKR (Homo sapiens, UniProt P19525); test: KINOMEscan; format: binding; conditions: read-out: Percent Control
T31 construct: purchased Eurofins DiscoverX KINOMEscan (scanMAX 468)

[1] = molecular target: T32, RSK1(Kin.Dom.2-C-terminal) (Homo sapiens, UniProt Q15418); test: KINOMEscan; format: binding; conditions: read-out: Percent Control
T32 construct: RSK1(Kin.Dom.2-C-terminal); purchased Eurofins DiscoverX KINOMEscan (scanMAX 468)

CDK7 = molecular target: T33, CDK7 (Homo sapiens, UniProt P50613); test: KINOMEscan; format: binding; conditions: read-out: Percent Control
T33 construct: purchased Eurofins DiscoverX KINOMEscan (scanMAX 468)

TEC = molecular target: T34, TEC (Homo sapiens, UniProt P42680); test: KINOMEscan; format: binding; conditions: read-out: Percent Control
T34 construct: purchased Eurofins DiscoverX KINOMEscan (scanMAX 468)

MLK1 = molecular target: T35, MLK1 (Homo sapiens, UniProt P80192); test: KINOMEscan; format: binding; conditions: read-out: Percent Control
T35 construct: purchased Eurofins DiscoverX KINOMEscan (scanMAX 468)

ERBB4 = molecular target: T36, ERBB4 (Homo sapiens, UniProt Q15303); test: KINOMEscan; format: binding; conditions: read-out: Percent Control
T36 construct: purchased Eurofins DiscoverX KINOMEscan (scanMAX 468)

AKT1 = molecular target: T37, AKT1 (Homo sapiens, UniProt P31749); test: KINOMEscan; format: binding; conditions: read-out: Percent Control
T37 construct: purchased Eurofins DiscoverX KINOMEscan (scanMAX 468)

MAP4K3 = molecular target: T38, MAP4K3 (Homo sapiens, UniProt Q8IVH8); test: KINOMEscan; format: binding; conditions: read-out: Percent Control
T38 construct: purchased Eurofins DiscoverX KINOMEscan (scanMAX 468)

PRKG2 = molecular target: T39, PRKG2 (Homo sapiens, UniProt Q13237); test: KINOMEscan; format: binding; conditions: read-out: Percent Control
T39 construct: purchased Eurofins DiscoverX KINOMEscan (scanMAX 468)

NLK = molecular target: T40, NLK (Homo sapiens, UniProt Q9UBE8); test: KINOMEscan; format: binding; conditions: read-out: Percent Control
T40 construct: purchased Eurofins DiscoverX KINOMEscan (scanMAX 468)

AMPK-alpha2 = molecular target: T41, AMPK-alpha2 (Homo sapiens, UniProt P54646); test: KINOMEscan; format: binding; conditions: read-out: Percent Control
T41 construct: purchased Eurofins DiscoverX KINOMEscan (scanMAX 468)

AURKB = molecular target: T42, AURKB (Homo sapiens, UniProt Q96GD4); test: KINOMEscan; format: binding; conditions: read-out: Percent Control
T42 construct: purchased Eurofins DiscoverX KINOMEscan (scanMAX 468)

T12 sequence (P50750 whole entry): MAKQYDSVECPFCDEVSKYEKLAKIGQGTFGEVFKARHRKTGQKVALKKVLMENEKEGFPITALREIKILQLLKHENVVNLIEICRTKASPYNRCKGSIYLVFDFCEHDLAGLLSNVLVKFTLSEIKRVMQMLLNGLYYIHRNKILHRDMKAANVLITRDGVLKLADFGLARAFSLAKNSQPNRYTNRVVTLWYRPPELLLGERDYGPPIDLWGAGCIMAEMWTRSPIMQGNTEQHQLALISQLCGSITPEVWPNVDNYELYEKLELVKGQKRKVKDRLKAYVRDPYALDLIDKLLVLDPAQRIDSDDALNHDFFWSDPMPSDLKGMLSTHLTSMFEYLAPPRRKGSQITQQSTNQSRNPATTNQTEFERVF
T12 sequence (O60563 whole entry partner): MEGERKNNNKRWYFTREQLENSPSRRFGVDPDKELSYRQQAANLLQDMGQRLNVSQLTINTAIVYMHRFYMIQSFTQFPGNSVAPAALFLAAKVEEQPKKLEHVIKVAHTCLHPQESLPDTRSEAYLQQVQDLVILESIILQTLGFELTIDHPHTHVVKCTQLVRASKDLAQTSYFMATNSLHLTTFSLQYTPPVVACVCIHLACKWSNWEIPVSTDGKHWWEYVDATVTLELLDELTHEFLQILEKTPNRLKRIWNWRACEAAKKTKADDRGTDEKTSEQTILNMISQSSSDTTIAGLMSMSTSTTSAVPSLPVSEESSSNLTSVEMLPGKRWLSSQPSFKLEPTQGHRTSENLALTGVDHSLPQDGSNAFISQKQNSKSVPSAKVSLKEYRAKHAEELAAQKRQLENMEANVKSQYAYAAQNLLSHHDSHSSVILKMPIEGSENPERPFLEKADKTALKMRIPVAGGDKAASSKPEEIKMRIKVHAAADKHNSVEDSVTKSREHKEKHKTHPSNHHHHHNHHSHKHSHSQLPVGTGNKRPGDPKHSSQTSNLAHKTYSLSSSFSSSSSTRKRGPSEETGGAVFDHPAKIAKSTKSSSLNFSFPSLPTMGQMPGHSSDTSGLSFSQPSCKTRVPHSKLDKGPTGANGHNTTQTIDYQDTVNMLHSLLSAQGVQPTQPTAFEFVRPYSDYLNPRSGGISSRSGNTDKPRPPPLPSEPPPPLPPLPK
T2 sequence (Q96J92 whole entry): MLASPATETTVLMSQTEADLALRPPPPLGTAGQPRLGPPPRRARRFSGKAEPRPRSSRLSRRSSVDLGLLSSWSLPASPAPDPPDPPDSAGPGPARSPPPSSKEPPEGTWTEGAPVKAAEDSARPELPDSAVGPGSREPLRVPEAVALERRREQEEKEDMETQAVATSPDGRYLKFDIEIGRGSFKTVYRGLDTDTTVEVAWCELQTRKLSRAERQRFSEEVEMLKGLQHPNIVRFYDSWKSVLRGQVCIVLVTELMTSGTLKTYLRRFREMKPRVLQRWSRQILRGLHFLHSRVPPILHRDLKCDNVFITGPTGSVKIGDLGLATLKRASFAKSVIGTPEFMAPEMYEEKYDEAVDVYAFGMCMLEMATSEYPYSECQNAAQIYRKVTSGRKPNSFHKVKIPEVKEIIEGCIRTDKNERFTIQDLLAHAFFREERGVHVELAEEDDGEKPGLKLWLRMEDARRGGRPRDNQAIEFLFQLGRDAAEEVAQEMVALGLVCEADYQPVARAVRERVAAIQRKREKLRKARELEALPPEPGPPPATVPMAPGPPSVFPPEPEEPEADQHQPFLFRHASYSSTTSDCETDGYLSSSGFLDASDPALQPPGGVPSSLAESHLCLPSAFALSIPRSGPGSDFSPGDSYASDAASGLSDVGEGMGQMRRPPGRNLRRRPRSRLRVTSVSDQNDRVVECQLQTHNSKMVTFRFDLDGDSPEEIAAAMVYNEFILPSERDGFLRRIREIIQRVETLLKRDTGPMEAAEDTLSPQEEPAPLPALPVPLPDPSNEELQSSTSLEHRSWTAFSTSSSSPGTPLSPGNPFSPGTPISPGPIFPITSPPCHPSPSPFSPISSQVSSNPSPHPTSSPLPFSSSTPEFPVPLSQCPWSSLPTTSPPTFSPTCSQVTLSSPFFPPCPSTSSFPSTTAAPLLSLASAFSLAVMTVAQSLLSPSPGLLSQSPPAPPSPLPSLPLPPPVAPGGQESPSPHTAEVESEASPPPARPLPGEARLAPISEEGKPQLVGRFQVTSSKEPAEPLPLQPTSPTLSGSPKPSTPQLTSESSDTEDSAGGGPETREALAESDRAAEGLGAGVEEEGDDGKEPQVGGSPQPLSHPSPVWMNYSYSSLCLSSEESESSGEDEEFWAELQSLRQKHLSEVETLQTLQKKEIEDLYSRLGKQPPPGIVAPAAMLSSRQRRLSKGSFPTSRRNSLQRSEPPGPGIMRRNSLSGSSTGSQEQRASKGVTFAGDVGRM
T35 sequence (P80192 whole entry): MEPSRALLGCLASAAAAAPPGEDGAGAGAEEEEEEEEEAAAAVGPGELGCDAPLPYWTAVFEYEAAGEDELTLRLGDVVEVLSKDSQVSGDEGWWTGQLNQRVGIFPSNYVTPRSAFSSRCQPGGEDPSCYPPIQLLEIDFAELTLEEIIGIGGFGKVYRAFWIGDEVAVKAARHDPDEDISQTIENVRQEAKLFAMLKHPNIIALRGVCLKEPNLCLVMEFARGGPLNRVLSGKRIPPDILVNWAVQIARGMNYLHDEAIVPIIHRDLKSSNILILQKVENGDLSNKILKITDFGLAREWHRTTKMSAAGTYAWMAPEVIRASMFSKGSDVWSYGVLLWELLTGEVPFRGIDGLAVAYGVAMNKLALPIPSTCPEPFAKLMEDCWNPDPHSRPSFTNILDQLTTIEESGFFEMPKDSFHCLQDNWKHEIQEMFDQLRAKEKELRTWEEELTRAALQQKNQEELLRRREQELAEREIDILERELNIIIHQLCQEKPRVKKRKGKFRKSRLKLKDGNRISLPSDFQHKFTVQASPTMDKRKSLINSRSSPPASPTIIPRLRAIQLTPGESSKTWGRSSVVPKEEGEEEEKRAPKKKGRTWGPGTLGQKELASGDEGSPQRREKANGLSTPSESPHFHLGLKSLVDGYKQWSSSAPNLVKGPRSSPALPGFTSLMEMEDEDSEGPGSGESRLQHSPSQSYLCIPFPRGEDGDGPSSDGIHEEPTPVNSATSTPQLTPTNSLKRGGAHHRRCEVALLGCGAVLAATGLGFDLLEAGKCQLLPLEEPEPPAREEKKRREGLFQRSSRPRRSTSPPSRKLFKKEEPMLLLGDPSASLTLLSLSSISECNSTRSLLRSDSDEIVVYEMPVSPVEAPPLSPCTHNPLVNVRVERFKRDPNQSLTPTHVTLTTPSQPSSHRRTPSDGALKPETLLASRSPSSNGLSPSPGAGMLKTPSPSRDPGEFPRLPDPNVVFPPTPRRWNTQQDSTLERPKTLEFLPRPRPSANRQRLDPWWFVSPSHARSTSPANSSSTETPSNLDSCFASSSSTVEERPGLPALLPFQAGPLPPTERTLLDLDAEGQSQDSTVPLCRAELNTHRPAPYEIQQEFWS
T3 sequence (Q9BRS2 whole entry): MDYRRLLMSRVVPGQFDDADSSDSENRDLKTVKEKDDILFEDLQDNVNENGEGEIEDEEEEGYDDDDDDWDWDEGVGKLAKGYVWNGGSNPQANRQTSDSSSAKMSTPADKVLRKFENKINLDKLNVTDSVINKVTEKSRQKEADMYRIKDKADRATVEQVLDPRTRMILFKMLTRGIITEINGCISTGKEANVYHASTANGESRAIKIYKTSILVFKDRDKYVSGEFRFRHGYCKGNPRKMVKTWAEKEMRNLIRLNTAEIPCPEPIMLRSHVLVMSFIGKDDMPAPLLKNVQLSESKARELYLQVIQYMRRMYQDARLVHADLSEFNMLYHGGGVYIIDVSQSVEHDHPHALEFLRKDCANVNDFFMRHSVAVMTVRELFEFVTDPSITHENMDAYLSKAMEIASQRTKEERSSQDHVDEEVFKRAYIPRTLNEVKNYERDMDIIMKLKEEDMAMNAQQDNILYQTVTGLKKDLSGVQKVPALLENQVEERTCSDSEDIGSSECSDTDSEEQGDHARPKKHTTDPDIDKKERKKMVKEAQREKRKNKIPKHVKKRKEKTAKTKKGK
T11 sequence (Q92918 whole entry): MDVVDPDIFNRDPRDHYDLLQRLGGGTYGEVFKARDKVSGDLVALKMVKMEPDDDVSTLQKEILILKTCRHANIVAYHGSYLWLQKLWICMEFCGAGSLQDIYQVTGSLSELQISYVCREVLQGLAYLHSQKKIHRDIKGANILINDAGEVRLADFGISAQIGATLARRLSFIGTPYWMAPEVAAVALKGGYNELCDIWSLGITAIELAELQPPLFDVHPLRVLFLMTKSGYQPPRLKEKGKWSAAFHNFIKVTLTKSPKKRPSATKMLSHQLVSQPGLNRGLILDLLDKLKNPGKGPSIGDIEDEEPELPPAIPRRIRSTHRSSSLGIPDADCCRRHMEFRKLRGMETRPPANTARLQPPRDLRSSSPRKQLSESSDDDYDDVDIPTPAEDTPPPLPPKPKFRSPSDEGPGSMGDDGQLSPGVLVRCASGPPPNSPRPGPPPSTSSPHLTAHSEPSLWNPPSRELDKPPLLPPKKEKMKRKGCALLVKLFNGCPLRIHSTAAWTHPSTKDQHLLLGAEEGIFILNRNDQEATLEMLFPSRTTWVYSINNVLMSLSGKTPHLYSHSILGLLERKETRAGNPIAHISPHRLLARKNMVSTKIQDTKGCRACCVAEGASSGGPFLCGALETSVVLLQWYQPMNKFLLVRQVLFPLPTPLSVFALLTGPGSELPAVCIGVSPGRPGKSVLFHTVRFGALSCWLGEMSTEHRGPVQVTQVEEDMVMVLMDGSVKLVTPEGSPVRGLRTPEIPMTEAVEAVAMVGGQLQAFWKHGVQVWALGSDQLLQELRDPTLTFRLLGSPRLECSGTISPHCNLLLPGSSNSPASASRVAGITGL

Molecule `Cc1ccc(-n2cc(COc3cccc4cnc(Nc5cccc(Cl)c5)nc34)nn2)c([N+](=O)[O-])c1` [DB18] has a remaining binding at 1 µM (FER) of 100%, a remaining binding at 1 µM (WNK4) of 100% and a remaining binding at 1 µM (RIOK1) of 100%. It also gave a remaining binding at 1 µM (MEK4) of 100%, a remaining binding at 1 µM (RIOK2) of 100% and a remaining binding at 1 µM (CTK) of 96%. It also gave a remaining binding at 1 µM (PFTK1) of 100%, a remaining binding at 1 µM (PRKD1) of 100% and a remaining binding at 1 µM (MTOR) of 55%. For the same molecule, the remaining binding at 1 µM (YANK2) was 100%, the remaining binding at 1 µM (HPK1) was 100% and the “% of residual activity Hs_CDK9/CyclinT” value (Hs_CDK9/CyclinT; 1 µM) was 90%. The “% of residual activity Hs_CDK9/CyclinT” value (Hs_CDK9/CyclinT; 10 µM) was 54%, the remaining binding at 1 µM (MST3) was 100% and the remaining binding at 1 µM (CDK11) was 100%. For the same molecule, the remaining binding at 1 µM (IKK-beta) was 100%, the remaining binding at 1 µM (MET(Y1235D)) was 100% and the remaining binding at 1 µM (EGFR(E746-A750del)) was 82%. For the same molecule, the remaining binding at 1 µM (BMPR1B) was 96%, the remaining binding at 1 µM (CSK) was 100% and the remaining binding at 1 µM (PLK1) was 100%. For the same molecule, the remaining binding at 1 µM (MYO3B) was 84%, the remaining binding at 1 µM (FYN) was 93% and the remaining binding at 1 µM (EPHA5) was 100%. The remaining binding at 1 µM (PIK3C2B) was 100%, the remaining binding at 1 µM (ADCK4) was 100% and the remaining binding at 1 µM (EIF2AK1) was 100%. For the same molecule, the remaining binding at 1 µM (DMPK2) was 100%, the remaining binding at 1 µM (DRAK2) was 100% and the remaining binding at 1 µM (CDK4-cyclinD1) was 93%. For the same molecule, the remaining binding at 1 µM (MET) was 95%, the remaining binding at 1 µM (PRKR) was 97% and the remaining binding at 1 µM [1] was 100%. It also gave a remaining binding at 1 µM (CDK7) of 100%, a remaining binding at 1 µM (TEC) of 100% and a remaining binding at 1 µM (MLK1) of 100%. For the same molecule, the remaining binding at 1 µM (ERBB4) was 100%, the remaining binding at 1 µM (AKT1) was 87% and the remaining binding at 1 µM (MAP4K3) was 95%. The remaining binding at 1 µM (PRKG2) was 100%, the remaining binding at 1 µM (NLK) was 87% and the remaining binding at 1 µM (AMPK-alpha2) was 91%. For the same molecule, the remaining binding at 1 µM (AURKB) was 99%.
